Results reported in patent US12679878B2, “CRF2 receptor agonists and their use in therapy” (SANOFI, priority 2020, dated 2026).
Starred links: 1 amine or outer side, 2 acyl side, 3 side chain; linkers in the order of their positions; H or OH if unused. Non-standard residues stand in square brackets, D forms with d. Residues, ends and D or L forms follow the SMILES beside them. Groups on a side chain read outwards from the residue. *: point of attachment. C20 diacid = O=C(O)CCCCCCCCCCCCCCCCCCC(=O)*; C18 diacid = O=C(O)CCCCCCCCCCCCCCCCC(=O)*; γGlu = O=C(O)[C@H](CCC(=O)[*:2])N[*:1]; Palmitoyl = CCCCCCCCCCCCCCCC(=O)*; AEEA = NCCOCCOCC(=O)O; Aib = CC(C)(N)C(=O)O

Assays:
CRF1R receptor = molecular target: T1, CRF1R receptor (Homo sapiens, UniProt P34998); experiment: cAMP activity at anti-target CRF1R, CHO-K1 cell line clone 2 (Example 19.10); format: cell-based; settings: CRF1R CHO-K1 clone 2; for Emax: 100% = Sauvagine at 100 nM; for EC50: 0% HSA, read-out: EC50 [nM] 0% HSA
T1 construct: host or cells: CHO-K1 clone 2
T1 sequence (P34998 24-415): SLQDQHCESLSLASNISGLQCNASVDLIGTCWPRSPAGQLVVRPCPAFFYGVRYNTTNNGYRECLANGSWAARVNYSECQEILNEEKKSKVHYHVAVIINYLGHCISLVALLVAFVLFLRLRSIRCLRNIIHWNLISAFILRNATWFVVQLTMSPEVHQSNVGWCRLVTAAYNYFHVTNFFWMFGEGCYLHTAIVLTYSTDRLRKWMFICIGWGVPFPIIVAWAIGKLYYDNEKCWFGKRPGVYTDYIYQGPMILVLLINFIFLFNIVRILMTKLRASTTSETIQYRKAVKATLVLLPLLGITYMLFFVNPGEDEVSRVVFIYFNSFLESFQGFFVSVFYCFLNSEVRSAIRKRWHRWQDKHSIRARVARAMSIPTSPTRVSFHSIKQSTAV
Experimental: The CRF1R-overexpression CHO-K1 cell line clone 2 was purchased from PerkinElmer.
Cells were grown in a 10 cm dish at 37° C./5% CO2 in medium (F12 (Hams)/10% FBS/400 μg/ml G418) to near confluence. At that stage, cells were harvested, resuspended to 10 million/mL in culture medium without G418 and with 10% DMSO. 1 mL vial aliquots were slowly frozen to -80° C. in isopropanol and then transferred in liquid nitrogen for storage. These vials were used to run the experiment following the procedure reported 10 in the previous paragraph, except for the compound used in the control well to define the 100% activation (Sauvagine at 100 nM)

human CRF2α receptor = molecular target: T2, human CRF2α receptor (Homo sapiens, UniProt Q13324); experiment: cAMP agonism at human CRF2 α receptor in TeloHEAC cells (Example 7); format: cell-based; settings: cAMP HTRF, TeloHEAC cells stably expressing human CRF2 α, 0% HSA; read-out: EC50 [nM], 0% HSA
T2 construct: expressed in transfected cells; host or cells: TeloHEAC
T2 sequence (Q13324 1-411): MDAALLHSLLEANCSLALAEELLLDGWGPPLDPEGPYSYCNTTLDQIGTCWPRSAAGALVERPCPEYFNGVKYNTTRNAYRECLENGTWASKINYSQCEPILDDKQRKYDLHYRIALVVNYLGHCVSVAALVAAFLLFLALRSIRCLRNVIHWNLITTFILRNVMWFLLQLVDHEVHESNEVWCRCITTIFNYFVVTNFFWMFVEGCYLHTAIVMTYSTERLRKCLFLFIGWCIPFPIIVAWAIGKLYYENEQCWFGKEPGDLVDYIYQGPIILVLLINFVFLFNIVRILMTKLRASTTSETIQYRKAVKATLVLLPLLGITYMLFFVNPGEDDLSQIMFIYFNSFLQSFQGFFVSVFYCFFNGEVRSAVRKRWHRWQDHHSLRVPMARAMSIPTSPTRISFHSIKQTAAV
Method in brief: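 Cryopreserved cells are thawed, washed and resuspended in IBMX-containing (2 mM) HEPES-buffered HBSS with or without 0.1% HSA. Compound incubation runs 30 min at room temperature with 2000 cells per well, then cAMP is measured by time-resolved FRET. Potency is expressed as EC50, efficacy relative to urocortin 2 at 1000 nM.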

| Compound | Emax (CRF1R receptor) | EC50 (CRF1R receptor) | EC50 (human CRF2α receptor) |
| --- | --- | --- | --- |
| CC[C@H](C)[C@H](N)C(=O)N[C@H](C(=O)N[C@@H](CC(C)C)C(=O)N[C@@H](CO)C(=O)N[C@@H](CC(C)C)C(=O)N[C@@H](CC(=O)O)C(=O)N[C@@H](C(=O)N1CCC[C@H]1C(=O)N[C@H](C(=O)N[C@@H](CCCCN)C(=O)N[C@@H](CC(C)C)C(=O)N[C@@H](CCCCNC(=O)COCCOCCNC(=O)COCCOCCNC(=O)CC[C@H](NC(=O)CCCCCCCCCCCCCCCCCCC(=O)O)C(=O)O)C(=O)N[C@@H](CCCCN)C(=O)N[C@@H](CCCCN)C(=O)N[C@@H](CC(C)C)C(=O)N[C@@H](CC(C)C)C(=O)N[C@@H](CCCCN)C(=O)N[C@@H](CCC(N)=O)C(=O)N[C@@H](CCC(=O)O)C(=O)N[C@@H](CCCNC(=N)N)C(=O)N[C@@H](CCCCN)C(=O)N[C@@H](CCCNC(=N)N)C(=O)NC(C)(C)C(=O)N[C@@H](CCC(=O)O)C(=O)N[C@@H](CCCNC(=N)N)C(=O)N[C@@H](CCC(=O)O)C(=O)N[C@@H](CCCCN)C(=O)N[C@@H](C)C(=O)N[C@@H](CCC(=O)O)C(=O)N[C@@H](CCCCN)C(=O)N[C@@H](C)C(=O)N[C@@H](C)C(=O)N[C@@H](CCCNC(=N)N)C(=O)N[C@H](C(=O)N[C@@H](CC(C)C)C(=O)N[C@@H](CCC(=O)O)C(=O)N[C@@H](CCCNC(=N)N)C(=O)N[C@H](C(N)=O)C(C)C)[C@@H](C)CC)[C@@H](C)O)C(C)C)C(C)C [SEQ ID NO: 224, IVLSLDvPTKLK*KKLLKQERKRAibEREKAEKAARILERV-NH2] (H-IVLSLD[dV]PTKLK([AEEA-AEEA-γGlu-C20 diacid])KKLLKQERKR[Aib]EREKAEKAARILERV-NH2; N-terminus assumed) | 52.6% |  |  |
| CC[C@H](C)[C@H](N)C(=O)N[C@H](C(=O)N[C@@H](CC(C)C)C(=O)N[C@@H](CO)C(=O)N[C@@H](CC(C)C)C(=O)N[C@@H](CC(=O)O)C(=O)N[C@H](C(=O)N1CCC[C@H]1C(=O)N[C@H](C(=O)NCC(=O)N[C@@H](CC(C)C)C(=O)N[C@@H](CCCCNC(=O)COCCOCCNC(=O)COCCOCCNC(=O)CC[C@H](NC(=O)CCCCCCCCCCCCCCCCC(=O)O)C(=O)O)C(=O)N[C@@H](CCC(N)=O)C(=O)N[C@@H](CCCCN)C(=O)N[C@@H](CC(C)C)C(=O)N[C@@H](CC(C)C)C(=O)N[C@@H](CCCCN)C(=O)N[C@@H](CCC(N)=O)C(=O)N[C@@H](CCC(N)=O)C(=O)N[C@@H](CCCNC(=N)N)C(=O)N[C@@H](CCC(N)=O)C(=O)N[C@@H](CCCNC(=N)N)C(=O)N[C@@H](CCCCN)C(=O)N[C@@H](CCC(=O)O)C(=O)N[C@@H](CCCNC(=N)N)C(=O)N[C@@H](CCC(N)=O)C(=O)N[C@@H](CCC(N)=O)C(=O)N[C@@H](C)C(=O)N[C@@H](CCC(=O)O)C(=O)N[C@@H](CCCCN)C(=O)N[C@@H](CC(N)=O)C(=O)N[C@@H](C)C(=O)N[C@@H](CCCNC(=N)N)C(=O)N[C@H](C(=O)N[C@@H](CC(C)C)C(=O)N[C@@H](C)C(=O)N[C@@H](CCCNC(=N)N)C(=O)N[C@H](C(N)=O)C(C)C)[C@@H](C)CC)[C@@H](C)CC)C(C)C)C(C)C [compound 16] (H-IVLSLDVPIGLK([AEEA-AEEA-γGlu-C18 diacid])QKLLKQQRQRKERQQAEKNARILARV-NH2) | 0.4% |  |  |
| CC[C@H](C)[C@H](N)C(=O)N[C@H](C(=O)N[C@@H](CC(C)C)C(=O)N[C@@H](CO)C(=O)N[C@@H](CC(C)C)C(=O)N[C@@H](CC(=O)O)C(=O)N[C@H](C(=O)N1CCC[C@H]1C(=O)N[C@H](C(=O)N[C@@H](CCCCN)C(=O)N[C@@H](CC(C)C)C(=O)N[C@@H](CCCCNC(=O)COCCOCCNC(=O)COCCOCCNC(=O)CC[C@H](NC(=O)CCCCCCCCCCCCCCCCC(=O)O)C(=O)O)C(=O)N[C@@H](CCC(N)=O)C(=O)N[C@H](C(=O)N[C@@H](CC(C)C)C(=O)N[C@@H](CC(C)C)C(=O)N[C@@H](CCCCN)C(=O)N[C@@H](CCC(N)=O)C(=O)N[C@@H](CCC(=O)O)C(=O)N[C@@H](CCCNC(=N)N)C(=O)N[C@@H](CCC(N)=O)C(=O)N[C@@H](CCCCN)C(=O)NC(C)(C)C(=O)N[C@@H](CCC(N)=O)C(=O)N[C@@H](CCCNC(=N)N)C(=O)N[C@@H](CCC(N)=O)C(=O)N[C@@H](CCCCN)C(=O)N[C@@H](C)C(=O)N[C@@H](CCC(=O)O)C(=O)N[C@@H](CCCCN)C(=O)N[C@@H](CC(N)=O)C(=O)N[C@@H](CCCCN)C(=O)N[C@@H](CCC(N)=O)C(=O)N[C@H](C(=O)N[C@@H](CC(C)C)C(=O)N[C@@H](C)C(=O)N[C@@H](CCC(N)=O)C(=O)N[C@H](C(N)=O)C(C)C)[C@@H](C)CC)[C@@H](C)CC)[C@@H](C)CC)C(C)C)C(C)C [compound 22] (H-IVLSLDVPIKLK([AEEA-AEEA-γGlu-C18 diacid])QILLKQERQK[Aib]QRQKAEKNKQILAQV-NH2) | 1.2% | > 100 nM | 0.12 nM |
| CCCCCCCCCCCCCCCC(=O)N[C@@H](CCC(=O)NCCCC[C@H](NC(=O)[C@H](CC(C)C)NC(=O)[C@H](CCCCN)NC(=O)[C@@H](NC(=O)[C@@H]1CCCN1C(=O)[C@H](NC(=O)[C@H](CC(=O)O)NC(=O)[C@H](CC(C)C)NC(=O)[C@H](CO)NC(=O)[C@H](CC(C)C)NC(=O)[C@@H](NC(=O)[C@@H](N)[C@@H](C)CC)C(C)C)C(C)C)[C@@H](C)O)C(=O)N[C@@H](CCCCN)C(=O)N[C@@H](CCCCN)C(=O)N[C@@H](CC(C)C)C(=O)N[C@@H](CC(C)C)C(=O)N[C@@H](CCCCN)C(=O)N[C@@H](CCC(N)=O)C(=O)N[C@@H](CCC(=O)O)C(=O)N[C@@H](CCCNC(=N)N)C(=O)N[C@@H](CCCCN)C(=O)N[C@@H](CCCNC(=N)N)C(=O)N[C@@H](CCCCN)C(=O)N[C@@H](CCC(=O)O)C(=O)N[C@@H](CCCNC(=N)N)C(=O)N[C@@H](CCC(=O)O)C(=O)N[C@@H](CCCCN)C(=O)N[C@@H](C)C(=O)N[C@@H](CCC(=O)O)C(=O)N[C@@H](CCCCN)C(=O)N[C@@H](CC(N)=O)C(=O)N[C@@H](C)C(=O)N[C@@H](CCCNC(=N)N)C(=O)N[C@H](C(=O)N[C@@H](CC(C)C)C(=O)N[C@@H](CCC(=O)O)C(=O)N[C@@H](CCCNC(=N)N)C(=O)N[C@H](C(N)=O)C(C)C)[C@@H](C)CC)C(=O)O [compound 25] (H-IVLSLD[dV]PTKLK([γGlu-Palmitoyl])KKLLKQERKRKEREKAEKNARILERV-NH2) | 0.1% | > 100 nM | 0.09 nM |
| CCCCCCCCCCCCCCCC(=O)N[C@@H](CCC(=O)NCCCC[C@H](NC(=O)[C@H](CC(C)C)NC(=O)[C@H](CCCCN)NC(=O)[C@@H](NC(=O)[C@@H]1CCCN1C(=O)[C@H](NC(=O)[C@H](CC(=O)O)NC(=O)[C@H](CC(C)C)NC(=O)[C@H](CO)NC(=O)[C@H](CC(C)C)NC(=O)[C@@H](NC(=O)[C@@H](N)[C@@H](C)CC)C(C)C)C(C)C)[C@@H](C)O)C(=O)N[C@@H](CCCCN)C(=O)N[C@@H](CCCCN)C(=O)N[C@@H](CC(C)C)C(=O)N[C@@H](CC(C)C)C(=O)N[C@@H](CCCCN)C(=O)N[C@@H](CCC(N)=O)C(=O)N[C@@H](CCC(=O)O)C(=O)N[C@@H](CCCNC(=N)N)C(=O)N[C@@H](CCCCN)C(=O)N[C@@H](CCCNC(=N)N)C(=O)N[C@@H](CCCCN)C(=O)N[C@@H](CCC(=O)O)C(=O)N[C@@H](CCCNC(=N)N)C(=O)N[C@@H](CCC(=O)O)C(=O)NC(C)(C)C(=O)N[C@@H](C)C(=O)N[C@@H](CCC(=O)O)C(=O)N[C@@H](CCCCN)C(=O)N[C@@H](CC(N)=O)C(=O)N[C@@H](C)C(=O)N[C@@H](CCCNC(=N)N)C(=O)N[C@H](C(=O)N[C@@H](CC(C)C)C(=O)N[C@@H](CCC(=O)O)C(=O)N[C@@H](CCCNC(=N)N)C(=O)N[C@H](C(N)=O)C(C)C)[C@@H](C)CC)C(=O)O [compound 26] (H-IVLSLD[dV]PTKLK([γGlu-Palmitoyl])KKLLKQERKRKERE[Aib]AEKNARILERV-NH2; N-terminus assumed) | 0.6% | > 100 nM | 0.01 nM |
